Data as given in US20230174584A1, “Antibiotic Compounds” (priority 2019, published 2023).
Converted amounts (≈) assume the structure as drawn.

Experiments:
Assay type in all cases: cell-based, Staphylococcus aureus
S. aureus ATCC29213 = experiment: UDP-MurNAc-pentapeptide accumulation assay; settings: S. aureus ATCC29213, 5 μM, 1 h
Procedure: An overnight culture of bacterial suspension (S. aureus ATCC29213, E. faecium E155, E. faecium E7314 and E. faecium E980) was diluted 100-fold in TSB supplemented with 0.002% p80 and cultured at 37° C. until the optical density of the suspension reached a level equivalent to the 0.5 McFarland standard. Chloramphenicol was added at a final concentration of 130 μg/mL and the culture was incubated for an additional 15 min at 37° C. […] The cultures were incubated at 37° C. for 1 h, after which they were centrifuged to pellet the bacteria. The supernatant was removed and the pellets were resuspended in 1 mL MQ-H2O. The samples were boiled at 100° C. for 15 minutes and subsequently centrifuged at 12000 rpm for 30 minutes. The supernatant of the samples was lyophilized and redissolved in 250 μL buffer A (50 mM ammonium bicarbonate, 5 mM NEt3, pH 8.3). Samples were analyzed by analytical RP-HPLC using a 0-25% buffer B (MeOH) gradient over 25 minutes.
An UDP-MurNAc-pentapeptide accumulation assay was performed to elucidate part of the mechanism of action of the compounds. UDP-MurNAc-pentapeptide is the last soluble precursor of peptidoglycan cell wall biosynthesis. In this assay, live cells accumulate this last soluble precursor when treated with compounds that interfere with the membrane bound stages of peptidoglycan biosynthesis (Sass, V. et al. Human beta-defensin 3 inhibits cell wall biosynthesis in Staphylococci. Infect. Immun. 78, 2793-2800 (2010)).

VRS3a = experiment: MIC assay, VISA and VRSA panel
Procedure: (§1) The antibacterial activity of the compounds was tested against a panel of bacteria, including Gram-positive bacteria (S. aureus ATCC29213, S. aureus USA300, S. aureus LIM-2, NR-45881, S. aureus HIP13419, NR-46413, E. faecium E155, E. faecium E7314, E. faecium E980, E. faecalis E1246, E. faecalis E7406 and S. pneumonia 153). The antibacterial activity of the compounds was further tested against S. aureus NY-155, NR-46236, S. aureus HIP12864, NR-46074, S. aureus 880 (BR-VRSA), NR-49120, E. faecalis E1246, E. faecalis E7604, as well as some Gram-negative bacteria (Escherichia coli and Klebsiella pneumoniae). Minimum inhibitory concentrations (MICs) in μg/mL were performed according to the CLSI guidelines. From glycerol stocks, bacterial strains were cultured on blood agar plates and incubated at 37° C. for 18 h. A single colony was transferred to tryptic soy broth (TSB) with 0.002% polysorbate 80 (p80). For the Enterococcus, VISA and VRSA strains, the cultures were grown at 37° C. until the optical density of the suspension reached a level equivalent to the 0.5 McFarland standard. The bacterial suspensions were diluted in TSB with 0.002% p80 to reach a bacterial cell density of 10^6 CFU/mL. In case of the other (vancomycin-sensitive) S. aureus strains, the direct colony suspension method was used. For these strains, after transfer of the colonies to TSB with 0.002% p80, they were immediately diluted to 10^6 CFU/mL, instead of incubated prior to this dilution. In the case of S. pneumonia, direct colony suspension was used by immediately suspending multiple colonies from fresh blood agar plates in TSB+0.002% p80 to an OD600 of 0.5 and subsequent dilution to 10^6 CFU mL^−1 in TSB+0.002% p80+5% lysed horse blood. Antibiotic dilutions for this strains were also made in TSB+0.002% p80+5% lysed horse blood. Both agar and microplates containing S. pneumonia were incubated at 37° C. with 5% CO2 for 24 h with constant shaking (600 rpm). […] The cultures were grown to exponential phase (OD600=0.5) at 37° C. […] In polypropylene 96-well microtiter plates, test compounds were added in biological triplicates and serial diluted 2-fold by transfer and mixing from one well to the next to achieve a final volume of 50 μL per well. An equal volume of bacterial suspension (10^6 CFU mL^−1) was added to the wells. The plates were sealed with breathable membranes and incubated at 37° C. for 24 h with constant shaking (600 rpm). In polypropylene microtiter plates, 100 μL of the test compounds was added to the first row in biological triplicates, and 50 μL of media was added to the other wells. The compounds were subjected to serial dilution by transfer and mixing of 50 μL from one well to the next. Subsequently, 50 μL of bacterial suspension (10^6 CFU/mL) was added to the wells. The plates were sealed with breathable membranes and incubated at 37° C. for 24 h with constant shaking (600 rpm). Positive growth control consisted of wells with bacterial suspension and without antibiotic. Negative growth control consisted of solely media without bacterial suspension or antibiotic. The MICs were determined from the median of a minimum of triplicates.

VRS4 = experiment: MIC assay, VISA and VRSA panel
Procedure: as §1

VRS11a = experiment: MIC assay, VISA and VRSA panel
Procedure: as §1

VRS9 = experiment: MIC assay, VISA and VRSA panel
Procedure: as §1

VRS1 = experiment: MIC assay, VISA and VRSA panel
Procedure: as §1

VRS8 = experiment: MIC assay, VISA and VRSA panel
Procedure: as §1

NRS18 = experiment: MIC assay, VISA and VRSA panel
Procedure: as §1

VRS11b = experiment: MIC assay, VISA and VRSA panel
Procedure: as §1

VRS7 = experiment: MIC assay, VISA and VRSA panel
Procedure: as §1

NRS17 = experiment: MIC assay, VISA and VRSA panel
Procedure: as §1

VRSA3b = experiment: MIC assay, VISA and VRSA panel
Procedure: as §1

NRS63SH = experiment: MIC assay, VISA and VRSA panel
Procedure: as §1

Row | Structure (SMILES) | accumulation of UDP-MurNAc-pentapeptide (S. aureus ATCC29213) | MIC (VRS3a; Staphylococcus aureus) [µg/mL] | MIC (VRS4; Staphylococcus aureus) [µg/mL] | MIC (VRS11a; Staphylococcus aureus) [µg/mL] | MIC (VRS9; Staphylococcus aureus) [µg/mL] | MIC (VRS1; Staphylococcus aureus) [µg/mL] | MIC (VRS8; Staphylococcus aureus) [µg/mL] | MIC (NRS18; Staphylococcus aureus, NRS18) [µg/mL] | MIC (VRS11b; Staphylococcus aureus) [µg/mL] | MIC (VRS7; Staphylococcus aureus) [µg/mL] | MIC (NRS17; Staphylococcus aureus, NRS17) [µg/mL] | MIC (VRSA3b; Staphylococcus aureus) [µg/mL] | MIC (NRS63SH; Staphylococcus aureus) [µg/mL] | other results
1 | CCCCCCCCNC(N)=Nc1ccc(CN[C@@]2(C)C[C@H](O[C@H]3[C@H](Oc4c5cc6cc4Oc4ccc(cc4Cl)[C@@H](O)[C@@H](NC(=O)[C@@H](CC(C)C)NC)C(=O)N[C@@H](CC(N)=O)C(=O)N[C@H]6C(=O)N[C@H]4C(=O)N[C@H](C(=O)N[C@H](C(=O)O)c6cc(O)cc(O)c6-c6cc4ccc6O)[C@H](O)c4ccc(c(Cl)c4)O5)O[C@H](CO)[C@@H](O)[C@@H]3O)O[C@@H](C)[C@H]2O)cc1 [Compound 6] | accumulation of UDP-MurNAc-pentapeptide |  |  |  |  |  |  |  |  |  |  |  |  | 
2 | CCCCCCN(CCCCCC)C(N)=Nc1ccc(CN[C@@]2(C)C[C@H](O[C@H]3[C@H](Oc4c5cc6cc4Oc4ccc(cc4Cl)[C@@H](O)[C@@H](NC(=O)[C@@H](CC(C)C)NC)C(=O)N[C@@H](CC(N)=O)C(=O)N[C@H]6C(=O)N[C@H]4C(=O)N[C@H](C(=O)N[C@H](C(=O)O)c6cc(O)cc(O)c6-c6cc4ccc6O)[C@H](O)c4ccc(c(Cl)c4)O5)O[C@H](CO)[C@@H](O)[C@@H]3O)O[C@@H](C)[C@H]2O)cc1 [Compound 12] |  |  |  |  |  |  |  |  |  |  |  |  |  | MIC (VRS3a; strain VRS3a): <0.016 µg/mL; MIC (VRS4; strain VRS4): 2 µg/mL (≈ 1.13 µM); MIC (VRS11a; strain VRS11a): 4 µg/mL (≈ 2.27 µM); MIC (VRS9; strain VRS9): 4 µg/mL (≈ 2.27 µM); MIC (VRS1; strain VRS1): 4 µg/mL (≈ 2.27 µM); MIC (VRS8; strain VRS8): 4 µg/mL (≈ 2.27 µM); MIC (NRS18; strain NRS18): 0.25 µg/mL (≈ 0.142 µM); MIC (VRS11b; strain VRS11b): 4 µg/mL (≈ 2.27 µM); MIC (VRS7; strain VRS7): 2 µg/mL (≈ 1.13 µM); MIC (NRS17; strain NRS17): 0.5 µg/mL (≈ 0.283 µM); MIC (VRSA3b; strain VRSA3b): 0.25 µg/mL (≈ 0.142 µM); MIC (NRS63SH; strain NRS63SH): 2 µg/mL (≈ 1.13 µM)
3 | CN[C@H](CC(C)C)C(=O)N[C@H]1C(=O)N[C@@H](CC(N)=O)C(=O)N[C@H]2C(=O)N[C@H]3C(=O)N[C@H](C(=O)N[C@H](C(=O)O)c4cc(O)cc(O)c4-c4cc3ccc4O)[C@H](O)c3ccc(c(Cl)c3)Oc3cc2cc(c3O[C@@H]2O[C@H](CO)[C@@H](O)[C@H](O)[C@H]2O[C@H]2C[C@](C)(NCc3ccc(N=C(N)NC/C=C(\C)CCC=C(C)C)cc3)[C@H](O)[C@H](C)O2)Oc2ccc(cc2Cl)[C@H]1O [Compound 14] | accumulation of UDP-MurNAc-pentapeptide |  |  |  |  |  |  |  |  |  |  |  |  | 
4 | CN[C@H](CC(C)C)C(=O)N[C@H]1C(=O)N[C@@H](CC(N)=O)C(=O)N[C@H]2C(=O)N[C@H]3C(=O)N[C@H](C(=O)N[C@H](C(=O)O)c4cc(O)cc(O)c4-c4cc3ccc4O)[C@H](O)c3ccc(c(Cl)c3)Oc3cc2cc(c3O[C@@H]2O[C@H](CO)[C@@H](O)[C@H](O)[C@H]2O[C@H]2C[C@](C)(N)[C@H](O)[C@H](C)O2)Oc2ccc(cc2Cl)[C@H]1O [Vancomycin, reference compound] |  | 64 (≈ 44.2 µM) | > 128 | > 128 | > 128 | > 128 | > 128 | 8 (≈ 5.52 µM) | > 128 | > 128 | 8 (≈ 5.52 µM) | > 128 | > 128 | 
5 | CCCCCCCCCNC(N)=Nc1ccc(CN[C@@]2(C)C[C@H](O[C@H]3[C@H](Oc4c5cc6cc4Oc4ccc(cc4Cl)[C@@H](O)[C@@H](NC(=O)[C@@H](CC(C)C)NC)C(=O)N[C@@H](CC(N)=O)C(=O)N[C@H]6C(=O)N[C@H]4C(=O)N[C@H](C(=O)N[C@H](C(=O)O)c6cc(O)cc(O)c6-c6cc4ccc6O)[C@H](O)c4ccc(c(Cl)c4)O5)O[C@H](CO)[C@@H](O)[C@@H]3O)O[C@@H](C)[C@H]2O)cc1 [Compound 7] | accumulation of UDP-MurNAc-pentapeptide |  |  |  |  |  |  |  |  |  |  |  |  | 
6 | CN[C@H](CC(C)C)C(=O)N[C@H]1C(=O)N[C@@H](CC(N)=O)C(=O)N[C@H]2C(=O)N[C@H]3C(=O)N[C@H](C(=O)N[C@H](C(=O)O)c4cc(O)cc(O)c4-c4cc3ccc4O)[C@H](O[C@H]3C[C@](C)(N)[C@@H](O)[C@H](C)O3)c3ccc(c(Cl)c3)Oc3cc2cc(c3O[C@@H]2O[C@H](CO)[C@@H](O)[C@H](O)[C@H]2O[C@H]2C[C@](C)(NCc3ccc(-c4ccc(Cl)cc4)cc3)[C@@H](O)[C@H](C)O2)Oc2ccc(cc2Cl)[C@H]1O [Oritavancin] |  | 0.5 (≈ 0.279 µM) | 1 (≈ 0.558 µM) | 1 (≈ 0.558 µM) | 2 (≈ 1.12 µM) | 1 (≈ 0.558 µM) | 1 (≈ 0.558 µM) | 1 (≈ 0.558 µM) | 1 (≈ 0.558 µM) | 0.5 (≈ 0.279 µM) | 4 (≈ 2.23 µM) | 0.25 (≈ 0.139 µM) | 1 (≈ 0.558 µM) | 
7 | CCCCCCCNC(N)=Nc1ccc(CN[C@@]2(C)C[C@H](O[C@H]3[C@H](Oc4c5cc6cc4Oc4ccc(cc4Cl)[C@@H](O)[C@@H](NC(=O)[C@@H](CC(C)C)NC)C(=O)N[C@@H](CC(N)=O)C(=O)N[C@H]6C(=O)N[C@H]4C(=O)N[C@H](C(=O)N[C@H](C(=O)O)c6cc(O)cc(O)c6-c6cc4ccc6O)[C@H](O)c4ccc(c(Cl)c4)O5)O[C@H](CO)[C@@H](O)[C@@H]3O)O[C@@H](C)[C@H]2O)cc1 [Compound 5] | accumulation of UDP-MurNAc-pentapeptide |  |  |  |  |  |  |  |  |  |  |  |  | MIC (VRS3a; strain VRS3a): 0.25 µg/mL (≈ 0.148 µM); MIC (VRS4; strain VRS4): 8 µg/mL (≈ 4.72 µM); MIC (VRS11a; strain VRS11a): 16 µg/mL (≈ 9.44 µM); MIC (VRS9; strain VRS9): 16 µg/mL (≈ 9.44 µM); MIC (VRS1; strain VRS1): 16 µg/mL (≈ 9.44 µM); MIC (VRS8; strain VRS8): 16 µg/mL (≈ 9.44 µM); MIC (NRS18; strain NRS18): 0.125 µg/mL (≈ 0.0738 µM); MIC (VRS11b; strain VRS11b): 16 µg/mL (≈ 9.44 µM); MIC (VRS7; strain VRS7): 4 µg/mL (≈ 2.36 µM); MIC (NRS17; strain NRS17): 0.25 µg/mL (≈ 0.148 µM); MIC (VRSA3b; strain VRSA3b): 1 µg/mL (≈ 0.59 µM); MIC (NRS63SH; strain NRS63SH): 8 µg/mL (≈ 4.72 µM)
8 | CCCCCCCCCCNCCN[C@@]1(C)C[C@H](O[C@H]2[C@H](Oc3c4cc5cc3Oc3ccc(cc3Cl)[C@@H](O)[C@@H](NC(=O)[C@@H](CC(C)C)NC)C(=O)N[C@@H](CC(N)=O)C(=O)N[C@H]5C(=O)N[C@H]3C(=O)N[C@H](C(=O)N[C@H](C(=O)O)c5cc(O)c(CNCP(=O)(O)O)c(O)c5-c5cc3ccc5O)[C@H](O)c3ccc(c(Cl)c3)O4)O[C@H](CO)[C@@H](O)[C@@H]2O)O[C@@H](C)[C@H]1O [Telavancin, reference compound] |  | 1 (≈ 0.57 µM) | 4 (≈ 2.28 µM) | 8 (≈ 4.56 µM) | 16 (≈ 9.11 µM) | 8 (≈ 4.56 µM) | 16 (≈ 9.11 µM) | 0.25 (≈ 0.142 µM) | 8 (≈ 4.56 µM) | 4 (≈ 2.28 µM) | 1 (≈ 0.57 µM) | 4 (≈ 2.28 µM) | 8 (≈ 4.56 µM) | 
